Values of other authors, collected in paper PMC12138161, “Structure–activity analysis of imino‐pyrimidinone‐fused pyrrolidines aids the development of dual plasmepsin V and plasmepsin X inhibitors” (The Febs Journal, 2025).
Where two headings read alike, the source gives them in different places.

What was measured:
[1] = system: PMV; conditions: cited from earlier work
[2] = system: PMX; conditions: cited from earlier work
[3] = system: PMIX; conditions: cited from earlier work
[4] = system: 3D7 strain of Plasmodium falciparum; conditions: blood stage growth, read-out: Pf 3D7 EC50; cited from earlier work

| Compound | IC50 [1] | IC50 ([1]; stated in text with reference to Fig. 1) | IC50 [2] | IC50 [3] | EC50 [4] |
| --- | --- | --- | --- | --- | --- |
| CC(C)C[C@H](NC(=O)[C@@H](NC(=O)[C@H](CCONC(=N)N)NC(=O)OCc1ccccc1)C1CCCCC1)[C@@H](O)CC(=O)NCCc1ccccc1 [WEHI-601 (2)] | 5 nM | < 20 nM | 330 nM | > 50000 nM | 90 nM |
| C[C@@H](NC[C@@H](O)[C@H](Cc1ccccc1)NC(=O)c1ccc(C(=O)N2CCN(C)CC2)cc1)c1ccccc1 [49c (3)] | > 1000 nM |  | 1.4 nM | 650 nM | 0.6 nM |
